Experimental data from patent EP4775209A1 (Ascentawits Pharmaceuticals, Ltd., priority 2023, dated 2025).
Where two headings read alike, the source gives them in different places.

Columns and labels:
[1] = GLP repeated-administration toxicity study (D1+D8/21 Days) in monkeys; type: in vivo, cynomolgus monkeys
Procedure: In a GLP repeated-administration toxicity study in cynomolgus monkeys, AS-3424 was intravenously infused to cynomolgus monkeys at doses of 0, 0.1, 0.3, and 0.6 mg/kg over 30 minutes on Days 1, 8, 22, and 29. […] Ultimately, the highest non-severe toxic dose (HNSTD) in monkeys was determined to be 0.6 mg/kg.

[2] = cited from earlier work
[3] = Toxicokinetics (D1+D8/21 Days) in monkeys; type: in vivo, cynomolgus monkeys; details: both sexes, cynomolgus monkey, in vivo, iv
solid tumors = details: 21 patients of 39; cited from earlier work
[4] = Phase I clinical trial of AST-3424 in China: blood pharmacokinetics compared with US data; type: in vivo, human; details: human, Chinese and American patients, printed as 'almost lower than', read-out: concentrations after 8 hours
[5] = test system: HuPrime® pancreatic cancer PA2637 subcutaneous xenograft model
Text: For the experimental procedures and relevant evaluation indicators of the aforementioned solid tumor animal efficacy models, please refer to Examples 7, 8, and 9 in Patent Application 1, namely PCT/US2016/062114, with Publication No. WO2017/087428 (corresponding to Chinese Application CN201680044608.1, with Publication No. CN108290911B), Examples 3 and 4 in Patent Application 2, namely PCT/CN2021/078115, with Publication No. WO2022178821, and Research Literature 1. The aforementioned non-clinical animal efficacy models (PDX) mentioned in the present application are all similar to those in the aforementioned literatures, and the specific operation procedures thereof are not described herein again.
PA2637 is a HuPrime® xenograft model established from a pancreatic cancer tumor of a patient.
Efficacy was evaluated based on the relative tumor growth inhibition rate (TGI, %), and safety was evaluated based on animal body weight changes and mortality.

[6] = GLP repeated-administration toxicity study (D1+D8/21 Days) in rats; type: in vivo, Sprague-Dawley (SD) rats; details: intravenous bolus on Days 1, 8, 22, 29
Procedure: Rats developed test article-related, dose-dependent lesions at the injection sites and the distal ends of the tails. At the 10 mg/kg dose, there were mild and reversible changes in hematology and serum biochemistry parameters.

[7] = test system: HuPrime® pancreatic cancer PA1170 subcutaneous xenograft model; experiment: Pancreatic cancer PA1170 subcutaneous xenograft efficacy model; type: in vivo, BALB/c nude mice; details: for TGI (%): Day 30, P<0.05; for mean tumor volume: Day 30 after first administration
[8] = test system: human lung cancer (H460-GFP) subcutaneous CDX model; experiment: Human lung cancer CDX efficacy model (QW×2 regimen); type: in vivo, nude mice; details: QW×2, QW×2, I.V., P<0.01
Procedure: Images of tumor burden in mice were non-invasively collected twice a week by a Fluor Vivo Model 100 imaging system, and the mean value of tumor area in each group was calculated based on imaging analysis results. […] The data from this experiment are the data for the H460 model in Example 3-1 of the aforementioned Patent Application 2 (see Table 5 and Figure 5 of this application).

[9] = Phase I solid tumor clinical trial of AST-3424 in China (CTR20191399): safety and tolerability; type: in vivo, human; details: Day 1 and Day 8 of every 21-day treatment cycle; Chinese subjects
Procedure: The treatment cycle was 21 days, with administration on Day 1 and Day 8. Dose escalation was conducted across five dose levels: 1.0, 2.0, 4.0, 6.0, and 8.0 mg/m^2. After discussion by the Safety Review Committee (SRC), the MTD and RP2D when administered on Day 1 and Day 8 of every 21-day treatment cycle were confirmed as 6.0 mg/m^2 (a total dose of 12 mg/m^2 per cycle). The safety and tolerability were slightly better in the U.S. subjects than in the Chinese subjects (with a marginally higher MTD/RP2D under the same dosing regimen than those in the Chinese population). The safety profile trends were consistent (most adverse events were mild in severity; the most common adverse events included anemia, decreased platelet count, fatigue, and vomiting). Other safety, PK and efficacy results were generally similar to those in the clinical trials of OBI-3424.

[10] = GLP repeated-administration toxicity study (QD×5/21 Days) in monkeys; type: in vivo, cynomolgus monkeys; details: 5 cycles
Procedure: In a GLP repeated-administration toxicity study in cynomolgus monkeys, AS-3424 was intravenously infused to cynomolgus monkeys at doses of 0, 0.1, 0.2, or 0.4/0.3 mg/kg over 30 minutes on Days 1-5, Days 22-26, Days 43-47, Days 64-68, and Days 85-89.
During the trials, a decrease in #EOS (absolute eosinophil count), %EOS (% eosinophils), #RET (absolute reticulocyte count), and %RETIC (% reticulocytes) was primarily observed in the ≥0.1 mg/kg dose groups; a decrease in #NEUT, #LYMPH (lymphocyte absolute count), and %LYMPH (% lymphocyte) was also seen in the ≥ 0.2 mg/kg dose groups; and a decrease in WBC (white blood cell), HGB (hemoglobin), and HCT (hematocrit) was also seen in the 0.4/0.3 mg/kg dose group. Among them, the reduction in eosinophils was correlated with the reduction in the percentage of eosinophils in the bone marrow smears at the end of the administration period, and the decrease in lymphocytes was correlated with the reduction of lymphocytes in the thymic cortex under microscopic examination, which were considered to be secondary stress responses. All the above hematological changes were recoverable during the recovery period.

[11] = Regimen A, 12 mg/m^2 dose level
[12] = 2 mg/kg once weekly for 2 weeks

For `C[C@H](OP(=O)(N1CC1)N1CC1)c1ccc([N+](=O)[O-])c(Oc2cccc(C(=O)N(C)C)c2)c1` [AST-3424], which “most prominent toxic reaction” value ([1]; 0.1, 0.3, 0.6 mg/kg on Days 1, 8, 22, 29, intestinal necrosis/hyperplasia in pathology) is on record?
The value was “diarrhea and vomiting”.

What about the “highest non-severe toxic dose (HNSTD)” value ([1]; 30-minute i.v. infusion on Days 1, 8, 22, 29) of the same molecule?
The value was 0.6 mg/kg.

What about the “probability of grade ≥3 TEAEs” value ([2]; 12 mg/m^2 on Day 1 and Day 8 of 21-day cycle (all 6 patients)) of the same molecule?
The value was 100%.

And the “probability of grade ≥3 TEAEs” value ([2]; 12 mg/m^2 only on Day 1 of 21-day cycle (2 out of 6 patients))?
Its value is 33.3%.

What about the “recommended Phase II dose (RP2D)” value ([2]; 21 days per cycle, administration on Day 1 (once every 3 weeks)) of the same molecule?
Its value is 12 mg/m^2.

What about the “dose-limiting toxicity: anemia Grade 3-4” value [2, 11] of the same molecule?
The value was 5 out of 6.

And the “dose-limiting toxicity: thrombocytopenia Grade 3-4” value [2, 11]?
Its value is 5 out of 6.

And the “maximum tolerated dose (MTD)” value ([2]; Regimen A: i.v., 21 days per cycle, administration on Day 1 and Day 8)?
Its value is 8 mg/m^2.

And the “nadir of the platelet count” value ([2]; Regimen A)?
Its value is “Day 15 or Day 22”.

What about the “patients with Grade 3 or higher anemia” value ([2]; Regimen B, 14 mg/m^2, among 6 patients treated) of the same molecule?
The value was 3 patients.

What about the MTD ([2]; Regimen B: i.v., 21 days per cycle, administration only on Day 1, highest tested dose 14 mg/m^2) of the same molecule?
Its MTD is “not reached”.

What about the “patients who experienced treatment-emergent adverse events (TRAEs)” value ([2]; all 39 patients (32/39)) of the same molecule?
Its value is 82%.

And the “Grade ≥3 TRAEs” value ([2]; all 39 patients)?
Its value is 49%.

And the TRAE anemia ([2]; all 39 patients)?
The TRAE anemia was 64%.

What about the TRAE fatigue ([2]; all 39 patients) of the same molecule?
The TRAE fatigue was 21%.

What about the TRAE nausea ([2]; all 39 patients) of the same molecule?
Its TRAE nausea is 26%.

What about the TRAE thrombocytopenia ([2]; all 39 patients) of the same molecule?
Its TRAE thrombocytopenia is 51%.

And the “patients who experienced serious TRAEs” value ([2]; all 39 patients)?
The value was 3 patients.

And the Vd [3]?
Its Vd is 0.223 to 0.676 L/kg.

What about the clearance [3] of the same molecule?
The clearance was 11.8 to 18.2 mL/min/kg.

What about the “confirmed best response stable disease” value (solid tumors) of the same molecule?
The value was 54%.

What about the concentration at 8 h [4] of the same molecule?
The concentration at 8 h was < 1 ng/mL.

What about the tumor clearance ([5]; 1 mg/kg QD×5, 2 cycles, 6 mice per group) of the same molecule?
Its tumor clearance is “the tumor in one mouse was cleared”.

And the “tolerability (body weight changes and mortality)” value ([5]; 1 mg/kg QD×5, 2 cycles, no animal deaths, no apparent drug toxicity)?
Its value is “well tolerated”.

What about the “TGI (%)” value ([5]; Day 36 after first administration, AST-3424 1 mg/kg QD×5, 16 days off, QD×5 (P < 0.001), ifosfamide 60 mg/kg QD×5/week for 2 weeks (no statistical difference)) of the same molecule?
The value was 80.78%.

What about the mean tumor volume ([5]; Day 36 after first administration, AST-3424 1 mg/kg QD×5, 16 days off, QD×5, ifosfamide 60 mg/kg QD×5/week for 2 weeks, vehicle 977.46) of the same molecule?
Its mean tumor volume is 186.08 mm^3.

And the NOAEL ([6]; Sprague-Dawley, rat, in vivo, read-out: no-observed-adverse-effect level (NOAEL))?
The NOAEL was 3 mg/kg.

What about the “dose at which 10% of animals showed severe toxic reactions (STD10)” value [6] of the same molecule?
Its value is 30 mg/kg.

And the “TGI (%)” value ([7]; 1 mg/kg QD×5, 16 days off, QD×5)?
The value was 97.60%.

What about the mean tumor volume ([7]; 1 mg/kg QD×5, 16 days off, QD×5, vehicle 1182.66) of the same molecule?
Its mean tumor volume is 29.50 mm^3.

What about the “TGI (%)” value [7, 12] of the same molecule?
The value was 94.83%.

What about the mean tumor volume [7, 12] of the same molecule?
The mean tumor volume was 64.50 mm^3.

What about the “tolerability (body weight changes and mortality)” value ([7]; AST-3424 groups 1 mg/kg QD×5 and 2 mg/kg QW, no animal deaths, no apparent drug toxicity) of the same molecule?
The value was “well tolerated”.

And the TGI ([8]; 0.625 mg/kg, 1-week off)?
The TGI was 60.2%.

What about the TGI ([8]; 1.25 mg/kg, 1 week off) of the same molecule?
Its TGI is 67.2%.

What about the TGI ([8]; 2.5 mg/kg, 1 week off) of the same molecule?
Its TGI is 88%.

What about the MTD [9] of the same molecule?
Its MTD is 6.0 mg/m^2.

What about the RP2D [9] of the same molecule?
Its RP2D is 6.0 mg/m^2.

And the toxic target organs ([10]; 0.1, 0.2, 0.4/0.3 mg/kg QD×5 per 21 days)?
The toxic target organs was “duodenum, jejunum, colon, and cecum”.

And the HNSTD ([10]; 30-minute i.v. infusion QD×5 per 21 days)?
The HNSTD was 0.3 mg/kg.
